Source: patent publication US10570080B2, “Perfume ketones” (Givaudan, S.A., priority 2015, dated 2020)
Read-outs that look alike come from different tables or passages of the source.

Tests used:
[1] = test system: Luciferase gene under the control of the ARE-element of the gene AKR1C2 (KeratinoSens cell line); experiment: KeratinoSens assay for skin sensitization: luciferase gene induction; settings: for Concentration for 1.5-fold gene induction (EC 1.5 in μM): 48 h, n.i. = no induction above threshold of 1.5; for Imax (fold maximal gene induction): 48 h incubation, 0.98 to 2000 μM, vs DMSO controls
Experimental: (§1) Sensitization is measured by the commercially-available and universally-accepted KeratinoSens™ test, which compares the potential skin sensitization risk of chemicals.
(§2) KeratinoSens cells were grown for 24 h in 96-well plates. The medium was then replaced with medium containing the test chemical and the solvent dimethylsulfoxide (DMSO) at a final level of 1%. Each compound was tested at 12 binary dilutions in the range from 0.98 to 2000 μM. Cells were incubated for 48 h with the test agents, and then luciferase activity and cytotoxicity were determined. This full procedure was repeated three times for each chemical. For each chemical in each repetition and at each concentration, the gene induction compared to DMSO controls and the wells with statistically significant induction over the threshold of 1.5 (i.e. 50% enhanced gene activity) were determined. Furthermore, the maximal fold-induction (Imax) and the EC1.5 value (concentration in μM for induction above the threshold) were calculated.
(§3) Compounds were tested using the commercial KeratinoSens™ assay for skin sensitization.

[2] = target: T1, test peptide Cor1C-420 (Ac-NKKCDLF) (Homo sapiens, UniProt Q9ULV4, I423F); experiment: Peptide reactivity assay for skin sensitization (similar to DPRA), LC-MS; assay type: biochemical; settings: 37° C., 1 mM test chemical, 0.1 mM peptide
T1 construct: purchased Genscript Inc., Piscataway, N.J., USA
Experimental: A second method to determine allergenic potential of chemicals is the DPRA direct peptide assay (OECD TG 442c). It is based on the fact that allergenic chemicals must react with a peptide/protein in order to be immunogenic.
A peptide reactivity assay (A. Natsch, H. Gfeller, Toxicol. Sci 2008, 106, 464-478) was conducted similarly to the DPRA assay: The test chemicals were dissolved to a final concentration of 4 mM in acetonitrile and 250 μl of this solution were added to 2 ml HPLC vials. The test peptide Cor1C-420 with the sequence Ac-NKKCDLF (Genscript Inc., Piscataway, N.J., USA), was dissolved at 0.133 mM in 20 mM phosphate buffer at pH 7.5, and 750 μl of this solution were added to each test vial (final concentrations: 1 mM of test chemical and 0.1 mM of peptide in 25% acetonitrile; ratio 1:10 as in the DPRA assay). The samples were incubated for 1-24 h at 37° C. and at regular intervals they were analysed by LC-MS analysis on a VELOS PRO Mass spectrometer (Thermo […], San Jose, Calif., U.S.A.) operated in the ESl(+) mode. The temperature of the capillary was kept at 275° C. Mass spectra were recorded from 200-2000 amu. […]
Two endpoints are measured with this assay: • a) Depletion of the parent peptide. The mass of the protonated parent peptide is measured and the corresponding peak integrated (% depletion; FIG. 2). […]

KeratinoSens cells = experiment: KeratinoSens assay: cytotoxicity / cellular viability; settings: 48 h
Experimental: KeratinoSens cells were grown for 24 h in 96-well plates. The medium was then replaced with medium containing the test chemical and the solvent dimethylsulfoxide (DMSO) at a final level of 1%. Each compound was tested at 12 binary dilutions in the range from 0.98 to 2000 μM. Cells were incubated for 48 h with the test agents, and then luciferase activity and cytotoxicity were determined. This full procedure was repeated three times for each chemical.
as §3

[3] = test system: Luciferase gene under the control of the ARE-element of the gene AKR1C2 (KeratinoSens cell line)
Experimental: as §1, §2, §3

concentration at which the luciferase gene is clearly induced [3] [µM]	maximal gene induction over control [3] [fold]	SMILES	sensitization rating by the KeratinoSens assay [1]	induction of luciferase activity above the 1.5-fold threshold ([1]; KeratinoSens)	Concentration for 1.5-fold gene induction (EC 1.5 in μM) ([1]; KeratinoSens)	Imax (fold maximal gene induction) ([1]; KeratinoSens) [fold]	levels of peptide adducts, fold lower as compared to Damascone delta ([2]; after 1 h) [fold]	peptide depletion ([2]; over the 24 h experiment)	Concentration for 50% Cytotoxicity (KeratinoSens cells) [µM]	sensitization rating by the KeratinoSens assay [3]
		C/C=C(\C)C(=O)[C@@H]1[C@@H](C)C=CCC1(C)C (relative stereo) [Example 1, (2E,1′R*,2′S*)-2-Methyl-(2′,6′,6′-trimethylcyclohex-3′-en-1′-yl)but-2-en-1-one]	non-sensitizing	did not induce luciferase activity above the 1.5-fold threshold	n.i.	1.09	3200	no significant peptide depletion	90.3	
4	8.7	C/C=C/C(=O)C1C(C)C=CCC1(C)C (stereo not shown) [Damascone delta™, (2E)-1-(2′,6′,6′-trimethylcyclohex-3′-en-1′-yl)but-2-en-1-one]								significantly sensitizing compound
		CC=C(C)C(=O)C1CCC=CC1C (stereo not drawn) [Example 8, (2E,1′R*,2′R*)-2-Methyl-1-(2′-methylcyclohex-3′-en-1′-yl)but-2-en-1-one]			n.i.	1.35			316.4	
